Reference: patent publication US12060388B2, “Cell-penetrating peptides and methods of use thereof” (priority 2018, dated 2024)

Key:
Format in all cases: cell-based
[1] = system: HeLa-S3 cells; assay: CellTiter-Fluor viability assay; details: 14 μM for 4 or 24 hours
Method: HeLa-S3 cells were incubated with medium, medium plus vehicle, or medium plus 14 μM P16/16 for 4 or 24 hours. Viability assay was performed by using the CellTiter-Fluor viability assay protocol (Promega, Cat #G6082). Briefly, an equal volume of CellTiter-Fluor reagent was added to each well without removing the medium, mixed briefly, then incubated for one hour at 37° C. Fluorescence was measured by using a GloMax Explorer Multimode Microplate Reader (380-400 nmEx/505 nmEm). n.s., not significant.

[2] = system: HPV16 PsV; assay: HPV16 PsV internalization in peptide-treated HeLa-S3 cells, anti-L1 immunofluorescence; details: 14 μM, MOI of 50, 8 or 16 h at 37° C.
Method: HeLa-S3 cells were incubated with 14 μM P16/16 or vehicle for one hour, followed by infection with HPV16 PsV at MOI of 50 at 4° C. for 2 h. Cells were washed with PBS to remove loosely-bound PsV and then shifted to 37° C. to allow virus internalization. After 8 or 16 h at 37° C., samples were fixed with 4% paraformaldehyde, permeabilized with 1% saponin, and stained with anti-L1 antibody. Cells were also stained with DAPI to visualize nuclei and examined by a Leica SP5 confocal microscope.
For the internalization experiments, 5×10^4 HeLa-S3 cells were grown on glass coverslips for 16 hours. After one-hour incubation with or without peptides, PsV at MOI of 50 were added and incubated at 4° C. for 2 hours, washed with PBS three times to remove loosely bound PsV, and shifted to 37° C.to initiate infection. As a control, cells were incubated with the solution used to dissolve peptides alone. At the indicated times post-infection, samples were fixed, permeabilized and stained with anti-L1 and AlexaFluor 488 conjugated secondary antibody. Cells were analyzed by a Leica SP5 confocal microscope.

[3] = system: HPV5 PsV; assay: Peptide inhibition of HPV5 PsV infection of HeLa-S3 cells, flow cytometry for HcRed; details: 14 μM peptide, MOI of one, 48 h.p.i.
Excerpt: FIG. 18A (top) depicts sequences of L2 peptides. […] Amino acid substitutions in the CPP or RBS mutant peptides are shown in orange and blue, respectively. Bottom: RBS and flanking sequences of indicated HPV L2 proteins or DMT1-II. FIG. 18B depicts an inhibitory dose-response curve for P16/16 peptide. 5×10^4 HeLa-S3 in 24-well plates were pretreated with various concentrations of P16/16 for one hour prior to infection with HPV pseudovirus (PsV) at multiplicity of infection (MOI) of 1. Peptide was left in the medium for the duration of the experiment. Cells were assessed by flow cytometry to determine the fraction of cells expressing reporter protein HcRed at 48 hours post-infection (h.p.i.). […] Forty-eight h.p.i., cells were assessed by flow cytometry to determine fraction of cells expressing reporter protein HcRed. […] HaCaT keratinocytes were infected at MOI of 1 with HPV16 PsV in the presence and absence of 14 μM P16/16, and infectivity was assessed 48 h.p.i. by flow cytometry for HcRed fluorescence. […] Successful infection by HPV16 and HPV16 PsV was assessed by quantitative reverse transcription-PCR (qRT-PCR) for expression of HPV early region and HcRed mRNA, respectively, and normalized to infection by the cognate virus in the absence of peptide. Background signal determined with non-cognate primers was <0.01%. […]

[4] = system: HPV16 PsV containing GFP11-tagged L2; assay: Split GFP assay with peptide, HaCaT/GFP1-10NES cells; details: 30 μM, MOI of 2000, three h.p.i.
Method: FIG. 26A depicts clonal HaCaT/GFP1-10NES cells expressing cytosolic GFP1-10 infected at MOI of 2000 with untagged HPV16 or with HPV16 PsV containing GFP11-tagged L2 in the absence or presence of 30 μM P16/16. Three h.p.i., cells were stained with Hoescht 33342 to visualize nuclei (blue) and examined by confocal microscopy for GFP fluorescence. FIG. 26B the corrected total cellular fluorescence (CTCF) of each cell was calculated and plotted in arbitrary units from three independent experiments. n.s., not significant. FIG. 26C depicts HaCaT/GFP-10NES cells infected as described in FIG. 26A with wild-type HPV16 PsV in the presence of 30 μM P16/16 or in its absence for three hours, followed by removal of PsV and incubation with medium containing peptide for an additional 48 hours. Cells were assessed by flow cytometry to determine reporter protein expression. Infectivity was normalized with that in the absence of peptide. **, p<0.01.
To determine if the cytoplasmic protrusion of L2 of PsV is inhibited by peptides, the split GFP assay was performed. 3×104 clonal HaCaT/GFP1-10NES expressing GFP1-10NES in the cytoplasm were seeded in eight-chambered glass slides and incubated with peptides for an hour prior to infection at MOI of ˜2000 with HPV16 PsV containing wild-type L2 or L2 containing inserted GFP11. […]

For `CC[C@H](C)[C@H](NC(=O)[C@@H](NC(=O)[C@H](Cc1ccc(O)cc1)NC(=O)[C@H](CCC(N)=O)NC(=O)[C@@H]1CCCN1C(=O)[C@H](CO)NC(=O)[C@@H](N)CS)[C@@H](C)O)C(=O)N[C@H](C(=O)N[C@@H](C)C(=O)N[C@@H](CC(=O)O)C(=O)N[C@@H](C)C(=O)NCC(=O)N[C@@H](CC(=O)O)C(=O)N[C@@H](Cc1ccccc1)C(=O)N[C@@H](Cc1ccc(O)cc1)C(=O)N[C@@H](CC(C)C)C(=O)N[C@@H](Cc1c[nH]cn1)C(=O)N1CCC[C@H]1C(=O)N[C@@H](CO)C(=O)N[C@@H](Cc1ccc(O)cc1)C(=O)N[C@@H](Cc1ccc(O)cc1)C(=O)N[C@@H](CCSC)C(=O)N[C@@H](CC(C)C)C(=O)N[C@@H](CCCNC(=N)N)C(=O)N[C@@H](CCCCN)C(=O)N[C@@H](CCCNC(=N)N)C(=O)N[C@@H](CCCNC(=N)N)C(=O)N[C@@H](CCCCN)C(=O)N[C@@H](CCCNC(=N)N)C(=O)O)[C@@H](C)CC` [P16/16], the “toxicity (morphology and cell viability assay)” value [1] was “no apparent toxicity”, the virus internalization [2] was “did not inhibit virus internalization” and the “inhibition of HPV5 PsV infection” value [3] was “potently inhibited infection”. For the same molecule, the “protrusion of L2 C terminus into the cytoplasm (reconstituted GFP)” value [4] was “did not inhibit protrusion of the C terminus of the L2 protein into the cytoplasm”.
